Earlier results as cited in patent publication US6346511B1, “Pharmaceutical composition comprising cyclosporin” (Panacea Biotec Limited, priority 1997, dated 2002).

Tested on: normal epithelial tissue and Peyer's patch tissue of guinea pigs
Conditions: in vitro, compared to the commercially available drinking solution

factor by which absorption of Cyclosporine was raised: 5-6
Substance: Choleic acid
